In brackets after ≈: the same amount, converted by molar mass. Positions of bridges follow the written chain, without caps; N, C: chain ends. Non-standard residues stand in square brackets, D forms with d. Residues, ends and D or L forms follow the SMILES beside them. *: point of attachment. dPhe(3,4,5-F3) = N[C@H](Cc1cc(F)c(F)c(F)c1)C(=O)O; dPhe(4-Cl) = N[C@H](Cc1ccc(Cl)cc1)C(=O)O; Phe(2-F) = N[C@@H](Cc1ccccc1F)C(=O)O; Gly(octyl) = CCCCCCCC[C@H](N)C(=O)O; d(hPhe) = N[C@H](CCc1ccccc1)C(=O)O; hPhe = N[C@@H](CCc1ccccc1)C(=O)O; dAoc(2) = CCCCCC[C@@H](N)C(=O)O; hLeu = CC(C)CC[C@H](N)C(=O)O; Octanoyl = CCCCCCCC(=O)*; Dab = NCC[C@H](N)C(=O)O
Columns and labels:
Assay type in all cases: functional
Escherichia coli [1] = experiment: Antimicrobial activity against […] Escherichia coli harboring mcr-1 assessed as bacterial growth inhibition incubated for 20 hrs by broth microdilution method
Pseudomonas aeruginosa [2] = experiment: Antimicrobial activity against Pseudomonas aeruginosa PAO1 assessed as bacterial growth inhibition incubated for 20 hrs by broth microdilution method
Acinetobacter baumannii [3] = experiment: Antimicrobial activity against colistin resistant Acinetobacter baumannii ATCC 3658/17 assessed as bacterial growth inhibition incubated for 20 hrs by broth microdilution method
Escherichia coli [4] = experiment: Antibacterial activity against Escherichia coli ATCC 25922 assessed as bacterial growth inhibition incubated for 20 hrs by broth microdilution method
Klebsiella pneumoniae [5] = experiment: Antimicrobial activity against Klebsiella pneumoniae ATCC 13883 assessed as bacterial growth inhibition incubated for 20 hrs by broth microdilution method
Pseudomonas aeruginosa [6] = experiment: Antimicrobial activity against colistin resistant Pseudomonas aeruginosa 7197/19 assessed as bacterial growth inhibition incubated for 20 hrs by broth microdilution method
Acinetobacter baumannii [7] = experiment: Antimicrobial activity against Acinetobacter baumannii ATCC 19606 assessed as bacterial growth inhibition incubated for 20 hrs by broth microdilution method
Escherichia coli [8] = experiment: Antibacterial activity against […] Escherichia coli clinical isolate 2 assessed as bacterial growth inhibition incubated for 20 hrs by broth microdilution method
Escherichia coli [9] = experiment: Antibacterial activity against […] Escherichia coli ATCC 25922 assessed as bacterial growth inhibition incubated for 20 hrs by broth microdilution method
Klebsiella pneumoniae [10] = experiment: Antimicrobial activity against colistin resistant Klebsiella pneumoniae clinical isolate 3 assessed as bacterial growth inhibition incubated for 20 hrs by broth microdilution method
Escherichia coli [11] = experiment: Antibacterial activity against […] Escherichia coli clinical isolate 3 assessed as bacterial growth inhibition incubated for 20 hrs by broth microdilution method
Acinetobacter baumannii [12] = experiment: Antimicrobial activity against colistin resistant Acinetobacter baumannii clinical isolate 1 assessed as bacterial growth inhibition incubated for 20 hrs by broth microdilution method
Klebsiella pneumoniae [13] = experiment: Antimicrobial activity against colistin resistant Klebsiella pneumoniae clinical isolate 2 assessed as bacterial growth inhibition incubated for 20 hrs by broth microdilution method
Klebsiella pneumoniae [14] = experiment: Antimicrobial activity against colistin resistant Klebsiella pneumoniae ATCC 13883 assessed as bacterial growth inhibition incubated for 20 hrs by broth microdilution method
Acinetobacter baumannii [15] = experiment: Antimicrobial activity against colistin resistant Acinetobacter baumannii clinical isolate 3 assessed as bacterial growth inhibition incubated for 20 hrs by broth microdilution method
Klebsiella pneumoniae [16] = experiment: Antimicrobial activity against colistin resistant Klebsiella pneumoniae clinical isolate 4 assessed as bacterial growth inhibition incubated for 20 hrs by broth microdilution method
Escherichia coli [17] = experiment: Antibacterial activity against […] Escherichia coli clinical isolate 1 assessed as bacterial growth inhibition incubated for 20 hrs by broth microdilution method
Klebsiella pneumoniae [18] = experiment: Antimicrobial activity against colistin resistant Klebsiella pneumoniae clinical isolate 1 assessed as bacterial growth inhibition incubated for 20 hrs by broth microdilution method
Acinetobacter baumannii [19] = experiment: Antimicrobial activity against colistin resistant Acinetobacter baumannii clinical isolate 4 assessed as bacterial growth inhibition incubated for 20 hrs by broth microdilution method
Pseudomonas aeruginosa [20] = experiment: Antimicrobial activity against Pseudomonas aeruginosa ATCC 27853 assessed as bacterial growth inhibition incubated for 20 hrs by broth microdilution method
Pseudomonas aeruginosa [21] = experiment: Antimicrobial activity against colistin resistant Pseudomonas aeruginosa clinical isolate 1 assessed as bacterial growth inhibition incubated for 20 hrs by broth microdilution method

Structure (SMILES)	MIC (Escherichia coli [1])	MIC (Pseudomonas aeruginosa [2])	MIC (Acinetobacter baumannii [3])	MIC (Escherichia coli [4])	MIC (Klebsiella pneumoniae [5])	MIC (Pseudomonas aeruginosa [6])	MIC (Acinetobacter baumannii [7])	MIC (Escherichia coli [8])	MIC (Klebsiella pneumoniae [10])	MIC (Klebsiella pneumoniae [13])	MIC (Acinetobacter baumannii [15])	MIC (Escherichia coli [17])	MIC (Klebsiella pneumoniae [18])	other results
CCCCCCCC(=O)N[C@@H](CCN)C(=O)N[C@H](C(=O)N[C@@H](CCN)C(=O)N[C@H]1CCNC(=O)[C@H]([C@@H](C)O)NC(=O)[C@H](CCN)NC(=O)[C@H](CCN)NC(=O)[C@H](Cc2ccccc2)NC(=O)[C@@H](CCc2ccccc2)NC(=O)[C@H](CCN)NC1=O)[C@@H](C)O (Octanoyl-[Dab]T[Dab][Dab][Dab][d(hPhe)]F[Dab][Dab]T; lactam 4-C)	2 µg/mL (≈ 1.62 µM)	0.25 µg/mL (≈ 0.202 µM)	1 µg/mL (≈ 0.808 µM)	0.5 µg/mL (≈ 0.404 µM)	2 µg/mL (≈ 1.62 µM)	0.25 µg/mL (≈ 0.202 µM)	0.125 µg/mL (≈ 0.101 µM)	–	–	–	–	–	–	–
CCCCCCCC(=O)N[C@@H](CCN)C(=O)N[C@H](C(=O)N[C@@H](CCN)C(=O)N[C@H]1CCNC(=O)[C@H]([C@@H](C)O)NC(=O)[C@H](CCN)NC(=O)[C@H](CCN)NC(=O)[C@H](Cc2ccccc2)NC(=O)[C@@H](CCCCCC)NC(=O)[C@H](CCN)NC1=O)[C@@H](C)O (Octanoyl-[Dab]T[Dab][Dab][Dab][dAoc(2)]F[Dab][Dab]T; lactam 4-C)	–	–	0.5 µg/mL (≈ 0.411 µM)	0.25 µg/mL (≈ 0.205 µM)	1 µg/mL (≈ 0.821 µM)	0.25 µg/mL (≈ 0.205 µM)	0.25 µg/mL (≈ 0.205 µM)	–	–	–	–	–	–	–
CCCCCCCC[C@@H]1NC(=O)[C@@H](Cc2ccccc2)NC(=O)[C@H](CCN)NC(=O)[C@@H](NC(=O)[C@H](CCN)NC(=O)[C@@H](NC(=O)[C@H](CCN)NC(=O)CCCCCCC)[C@@H](C)O)CCNC(=O)[C@H]([C@@H](C)O)NC(=O)[C@H](CCN)NC(=O)[C@H](CCN)NC1=O (Octanoyl-[Dab]T[Dab][Dab][Dab][dF][Gly(octyl)][Dab][Dab]T; lactam 4-C)	–	0.5 µg/mL (≈ 0.401 µM)	–	0.5 µg/mL (≈ 0.401 µM)	0.25 µg/mL (≈ 0.201 µM)	0.25 µg/mL (≈ 0.201 µM)	0.25 µg/mL (≈ 0.201 µM)	4 µg/mL (≈ 3.21 µM)	16 µg/mL (≈ 12.8 µM)	16 µg/mL (≈ 12.8 µM)	0.25 µg/mL (≈ 0.201 µM)	4 µg/mL (≈ 3.21 µM)	–	MIC (Escherichia coli [9]): 0.5 µg/mL (≈ 0.401 µM); MIC (Escherichia coli [11]): 4 µg/mL (≈ 3.21 µM); MIC (Acinetobacter baumannii [12]): 4 µg/mL (≈ 3.21 µM); MIC (Klebsiella pneumoniae [14]): 16 µg/mL (≈ 12.8 µM); MIC (Klebsiella pneumoniae [16]): 16 µg/mL (≈ 12.8 µM)
CCCCCCCC(=O)N[C@@H](CCN)C(=O)N[C@H](C(=O)N[C@@H](CCN)C(=O)N[C@H]1CCNC(=O)[C@H]([C@@H](C)O)NC(=O)[C@H](CCN)NC(=O)[C@H](CCN)NC(=O)[C@H](CCC(C)C)NC(=O)[C@@H](Cc2ccccc2)NC(=O)[C@H](CCN)NC1=O)[C@@H](C)O (Octanoyl-[Dab]T[Dab][Dab][Dab][dF][hLeu][Dab][Dab]T; lactam 4-C)	1 µg/mL (≈ 0.831 µM)	< 0.125 µg/mL	–	< 0.125 µg/mL	0.25 µg/mL (≈ 0.208 µM)	0.5 µg/mL (≈ 0.415 µM)	–	0.5 µg/mL (≈ 0.415 µM)	–	8 µg/mL (≈ 6.65 µM)	0.5 µg/mL (≈ 0.415 µM)	–	16 µg/mL (≈ 13.3 µM)	MIC (Escherichia coli [9]): 0.125 µg/mL (≈ 0.104 µM); MIC (Acinetobacter baumannii [19]): 2 µg/mL (≈ 1.66 µM); MIC (Acinetobacter baumannii [12]): 4 µg/mL (≈ 3.32 µM); MIC (Pseudomonas aeruginosa [20]): 0.25 µg/mL (≈ 0.208 µM)
CCCCCCCC(=O)N[C@@H](CCN)C(=O)N[C@H](C(=O)N[C@@H](CCN)C(=O)N[C@H]1CCNC(=O)[C@H]([C@@H](C)O)NC(=O)[C@H](CCN)NC(=O)[C@H](CCN)NC(=O)[C@H](Cc2ccccc2F)NC(=O)[C@@H](CC(C)C)NC(=O)[C@H](CCN)NC1=O)[C@@H](C)O (Octanoyl-[Dab]T[Dab][Dab][Dab][dL][Phe(2-F)][Dab][Dab]T; lactam 4-C)	2 µg/mL (≈ 1.66 µM)	–	–	0.06 µg/mL (≈ 0.0497 µM)	4 µg/mL (≈ 3.31 µM)	–	0.125 µg/mL (≈ 0.104 µM)	–	–	–	–	–	–	–
CCCCCCCC(=O)N[C@@H](CCN)C(=O)N[C@H](C(=O)N[C@@H](CCN)C(=O)N[C@H]1CCNC(=O)[C@H]([C@@H](C)O)NC(=O)[C@H](CCN)NC(=O)[C@H](CCN)NC(=O)[C@H](CCc2ccccc2)NC(=O)[C@@H](CC(C)C)NC(=O)[C@H](CCN)NC1=O)[C@@H](C)O (Octanoyl-[Dab]T[Dab][Dab][Dab][dL][hPhe][Dab][Dab]T; lactam 4-C)	1 µg/mL (≈ 0.831 µM)	0.25 µg/mL (≈ 0.208 µM)	–	0.125 µg/mL (≈ 0.104 µM)	–	1 µg/mL (≈ 0.831 µM)	–	1 µg/mL (≈ 0.831 µM)	4 µg/mL (≈ 3.32 µM)	4 µg/mL (≈ 3.32 µM)	1 µg/mL (≈ 0.831 µM)	1 µg/mL (≈ 0.831 µM)	4 µg/mL (≈ 3.32 µM)	MIC (Escherichia coli [11]): 0.5 µg/mL (≈ 0.415 µM); MIC (Pseudomonas aeruginosa [20]): 0.25 µg/mL (≈ 0.208 µM); MIC (Klebsiella pneumoniae [16]): 4 µg/mL (≈ 3.32 µM)
CCCCCCCC(=O)N[C@@H](CCN)C(=O)N[C@H](C(=O)N[C@@H](CCN)C(=O)N[C@H]1CCNC(=O)[C@H]([C@@H](C)O)NC(=O)[C@H](CCN)NC(=O)[C@H](CCN)NC(=O)[C@H](CC(C)C)NC(=O)[C@@H](Cc2cc(F)c(F)c(F)c2)NC(=O)[C@H](CCN)NC1=O)[C@@H](C)O (Octanoyl-[Dab]T[Dab][Dab][Dab][dPhe(3,4,5-F3)]L[Dab][Dab]T; lactam 4-C)	1 µg/mL (≈ 0.804 µM)	< 0.125 µg/mL	–	< 0.125 µg/mL	< 0.125 µg/mL	0.25 µg/mL (≈ 0.201 µM)	< 0.125 µg/mL	–	–	–	–	–	–	–
CCCCCCCC(=O)N[C@@H](CCN)C(=O)N[C@H](C(=O)N[C@@H](CCN)C(=O)N[C@H]1CCNC(=O)[C@H]([C@@H](C)O)NC(=O)[C@H](CCN)NC(=O)[C@H](CCN)NC(=O)[C@H](CC(C)C)NC(=O)[C@@H](Cc2ccc(Cl)cc2)NC(=O)[C@H](CCN)NC1=O)[C@@H](C)O (Octanoyl-[Dab]T[Dab][Dab][Dab][dPhe(4-Cl)]L[Dab][Dab]T; lactam 4-C)	–	0.25 µg/mL (≈ 0.204 µM)	0.25 µg/mL (≈ 0.204 µM)	–	< 0.125 µg/mL	0.25 µg/mL (≈ 0.204 µM)	–	–	16 µg/mL (≈ 13.1 µM)	–	–	2 µg/mL (≈ 1.63 µM)	16 µg/mL (≈ 13.1 µM)	MIC (Pseudomonas aeruginosa [21]): 4 µg/mL (≈ 3.27 µM); MIC (Acinetobacter baumannii [19]): 16 µg/mL (≈ 13.1 µM); MIC (Klebsiella pneumoniae [14]): 16 µg/mL (≈ 13.1 µM)

— ChEMBL document CHEMBL5537158, “Polymyxins with Potent Antibacterial Activity against Colistin-Resistant Pathogens: Fine-Tuning Hydrophobicity with Unnatural Amino Acids” (J Med Chem, 2024)
